According to patent US10092584B2 (Achillion Pharmaceuticals, Inc., priority 2015, dated 2018):

Biological target: T1, Human Factor D (Homo sapiens, UniProt P00746)
T1 construct: purified from human serum; purchased Complement Technology, Inc; host or cells: human serum
Assay: Human Factor D assay (Example 8)
Format: biochemical
Settings: Table 3; Human Factor D 80 nM, substrate Z-L-Lys-SBzl; read-out: IC50 (Stars)
Procedure, shortened: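 Thioesterase activity monitored with Z-L-Lys-SBzl plus Ellman's reagent (DTNB), each 100 μM final, after 5 min room-temperature compound preincubation of 80 nM human serum Factor D in pH 7.5 Tris (50 mM)/1M NaCl.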

T1 sequence (P00746 26-253): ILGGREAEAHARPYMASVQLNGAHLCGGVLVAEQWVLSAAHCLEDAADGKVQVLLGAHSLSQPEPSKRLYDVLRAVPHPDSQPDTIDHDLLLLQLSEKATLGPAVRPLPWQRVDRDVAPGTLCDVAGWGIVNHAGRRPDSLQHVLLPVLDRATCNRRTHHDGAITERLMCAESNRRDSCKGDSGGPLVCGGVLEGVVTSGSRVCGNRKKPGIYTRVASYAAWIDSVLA

IC50	Structure (SMILES)
< 1000 nM	CC(=O)c1nn(CC(=O)N2C[C@H](F)C[C@H]2C(=O)Nc2cccc(Br)n2)c2ccc(O)cc12 [Compound 395, (2S,4R)-1-(2-(3-acetyl-5-hydroxy-1H-indazol-1-yl)acetyl)-N-(6-bromopyridin-2-yl)-4-fluoropyrrolidine-2-carboxamide]
< 1000 nM	CC(=O)c1nn(CC(=O)N2[C@@H]3C[C@@H]3C[C@H]2C(=O)NC/C(F)=C(/C)c2cccc(Cl)c2)c2ccccc12 [Compound 396]
< 1000 nM	CC(=O)c1nn(CC(=O)N2C[C@H](F)C[C@H]2C(=O)NCC23CC4CC(CC(C4)C2)C3)c2ccccc12 [Compound 397, (2S,4R)-1-(2-(3-acetyl-1H-indazol-1-yl)acetyl)-N-(((3S,5S,7S)-adamantan-1-yl)methyl)-4-fluoropyrrolidine-2-carboxamide]
< 1000 nM	CC(=O)c1nn(CC(=O)N2C[C@H](F)C[C@H]2C(=O)Nc2cccc(Br)n2)c2cnc(Cl)cc12 [Compound 399, (2S,4R)-1-(2-(3-Acetyl-5-chloro-1H-pyrazolo[3,4-c]pyridin-1-yl)acetyl)-N-(6-bromopyridin-2-yl)-4-fluoropyrrolidine-2-carboxamide]
< 1000 nM	CC(=O)c1nn(CC(=O)N2C[C@H](F)C[C@H]2C(=O)Nc2cccc(-c3ccc4c(c3)CCN4)c2F)c2ccccc12 [Compound 435, (2S,4R)-1-(2-(3-Acetyl-1H-indazol-1-yl)acetyl)-4-fluoro-N-(2-fluoro-3-(indolin-5-yl)phenyl)pyrrolidine-2-carboxamide]
< 1000 nM	CC(=O)c1nn(CC(=O)N2C[C@H](F)C[C@H]2C(=O)Nc2cccc(-c3ccc4c(c3)NCCN4)c2F)c2ccccc12 [Compound 436]
< 1000 nM	CC(=O)c1nn(CC(=O)N2C[C@H](F)C[C@H]2C(=O)Nc2cccc(-c3ccc4c(c3)NCC4)c2F)c2ccccc12 [Compound 437, (2S,4R)-1-(2-(3-acetyl-1H-indazol-1-yl)acetyl)-4-fluoro-N-(2-fluoro-3-(indolin-6-yl)phenyl)pyrroli-dine-2-carboxamide]
< 1000 nM	CC(=O)c1nn(CC(=O)N2C[C@H](F)C[C@H]2C(=O)Nc2cccc(-c3ccc4c(c3)CNC4)c2F)c2ccccc12 [Compound 439, (2S,4R)-1-(2-(3-Acetyl-1H-indazol-1-yl)acetyl)-4-fluoro-N-(2-fluoro-3-(isoindolin-5-yl)phenyl)pyrrolidine-2-carboxamide]
< 1000 nM	NC(=O)c1nn(CC(=O)N2C[C@H](F)C[C@H]2C(=O)Nc2cccc(-c3ccc4c(c3)NCCO4)c2F)c2ccccc12 [Compound 442, 1-(2-((2S,4R)-2-((3-(3,4-Dihydro-2H-benzo[b][1,4]oxazin-6-yl)-2-fluorophenyl)carbamoyl)-4-fluoropyrrolidin-1-yl)-2-oxoethyl)-1H-indazole-3-carboxamide]
< 1000 nM	NC(=O)c1nn(CC(=O)N2C[C@H](F)C[C@H]2C(=O)Nc2cccc(-c3ccc4c(c3Cl)NCCN4)c2F)c2ccccc12 [Compound 443, 1-(2-((2S,4R)-2-((3-(5-Chloro-1,2,3,4-tetrahydroquinoxalin-6-yl)-2-fluorophenyl)carbamoyl)-4-fluoropyrrolidin-1-yl)-2-oxoethyl)-1H-indazole-3-carboxamide]
< 1000 nM	CC(=O)c1nn(CC(=O)N2C[C@H](F)C[C@H]2C(=O)Nc2cccc(-c3ccc4c(c3Cl)NCCN4)c2F)c2ccccc12 [Compound 445, (2S,4R)-1-(2-(3-Acetyl-1H-indazol-1-yl)acetyl)-N-(3-(5-chloro-1,2,3,4-tetrahydroquinoxalin-6-yl)-2-fluorophenyl)-4-fluoropyrrolidine-2-carboxamide]
< 1000 nM	CC(=O)c1nn(CC(=O)N2C[C@H](F)C[C@H]2C(=O)Nc2cccc(-c3ccc4c(c3)CCCN4)c2F)c2ccccc12 [Compound 449, (2S,4R)-1-(2-(3-Acetyl-1H-indazol-1-yl)acetyl)-4-fluoro-N-(2-fluoro-3-(1,2,3,4-tetrahydroquinolin-6-yl)phenyl)pyrrolidine-2-carboxamide]
< 1000 nM	CC(=O)c1nn(CC(=O)N2C[C@H](F)C[C@H]2C(=O)Nc2cccc(-c3ccc4c(c3)NCCC4)c2F)c2ccccc12 [Compound 450, (2S,4R)-1-(2-(3-Acetyl-1H-indazol-1-yl)acetyl)-4-fluoro-N-(2-fluoro-3-(1,2,3,4-tetrahydroquinolin-7-yl)phenyl)pyrrolidine-2-carboxamide]
< 1000 nM	CC(=O)c1nn(CC(=O)N2C[C@H](F)C[C@H]2C(=O)Nc2cccc(-c3ccc4c(c3)CNCC4)c2F)c2ccccc12 [Compound 451, (2S,4R)-1-(2-(3-Acetyl-1H-indazol-1-yl)acetyl)-4-fluoro-N-(2-fluoro-3-(1,2,3,4-tetrahydroisoquinolin-7-yl)phenyl)pyrrolidine-2-carboxamide]
< 1000 nM	O=C(NCc1cccc(Cl)c1F)[C@@H]1C[C@@H](F)CN1C(=O)Cn1cc(-c2cnco2)c2ccccc21 [Compound 452, (2S,4R)—N-(3-chloro-2-fluorobenzyl)-4-fluoro-1-(2-(3-(oxazol-5-yl)-1H-indol-1-yl)acetyl)pyrrolidine-2-carboxamide]
< 1000 nM	C[C@@]12C[C@@H](C(=O)Nc3cccc(-c4ccc5nc[nH]c5c4Cl)c3F)N(C(=O)Cn3nc(C(N)=O)c4ccccc43)[C@@H]1C2 [Compound 453, 1-(2-((1R,3S,5R)-3-((3-(7-chloro-1H-benzo[d]imidazol-6-yl)-2-fluorophenyl)car-bamoyl)-5-methyl-2-azabicyclo[3.1.0]hexan-2-yl)-2-oxoethyl)-1H-indazole-3-carboxamide]
< 1000 nM	CC(=O)c1nn(CC(=O)N2[C@@H]3C[C@@H]3C[C@H]2C(=O)Nc2cccc(-c3ccc4nc[nH]c4c3Cl)c2F)c2cnc(C)cc12 [Compound 454, (1R,3S,5R)-2-(2-(3-acetyl-5-methyl-1H-pyrazolo[3,4-c]pyridin-1-yl)acetyl)-N-(3-(7-chloro-1H-benzo[d]imidazol-6-yl)-2-fluorophenyl)-2-azabicyclo[3.1.0] hexane-3-carboxamide]
< 1000 nM	CC(=O)c1nn(CC(=O)N2C[C@H](F)C[C@H]2C(=O)Nc2cccc(-c3ccc4nc[nH]c4c3F)c2F)c2ccccc12 [Compound 455, (2S,4R)-1-(2-(3-acetyl-1H-indazol-1-yl)acetyl)-4-fluoro-N-(2-fluoro-3-(7-fluoro-1H-benzo[d]imidazol-6-yl)phenyl)pyrrolidine-2-carboxamide]
< 1000 nM	NC(=O)c1nn(CC(=O)N2C[C@H](F)C[C@H]2C(=O)Nc2cccc(-c3ccc4nc[nH]c4c3F)c2F)c2ccccc12 [Compound 456, 1-(2-((2S,4R)-4-fluoro-2-((2-fluoro-3-(7-fluoro-1H-benzo[d]imidazol-6-yl)phenyl)carba-moyl)pyrrolidin-1-yl)-2-oxoethyl)-1H-indazole-3-carboxamide]
< 1000 nM	CC(=O)c1nn(CC(=O)N2C[C@H](F)C[C@H]2C(=O)Nc2cccc(-c3cccc4nc[nH]c34)c2F)c2ccccc12 [Compound 457, (2S,4R)-N-(3-(1H-benzo[d]imidazol-7-yl)-2-fluorophenyl)-1-(2-(3-acetyl-1H-indazol-1-yl)acetyl)-4-fluoropyrrolidine-2-carboxamide]
< 1000 nM	NC(=O)c1nn(CC(=O)N2C[C@H](F)C[C@H]2C(=O)Nc2cccc(-c3cc(Cl)c4nc[nH]c4c3)c2F)c2ccccc12 [Compound 458, 1-(2-((2S,4R)-2-(3-(4-chloro-1H-benzo[d]imidazol-6-yl)-2-fluorophenylcarb-amoyl)-4-fluoropyrrolidin-1-yl)-2-oxoethyl)-1H-indazole-3-carboxamide]
< 1000 nM	CC(=O)c1nn(CC(=O)N2C[C@H](F)C[C@H]2C(=O)Nc2cccc(-c3ccc4[nH]cnc4c3Cl)c2F)c2cnccc12 [Compound 459, (2S,4R)-1-(2-(3-acetyl-1H-pyrazolo[3,4-c]pyridin-1-yl)acetyl)-N-(3-(4-chloro-1H-benzo[d]imidazol-5-yl)-2-fluorophenyl)-4-fluoropyrrolidine-2-carboxamide]
< 1000 nM	CC(=O)c1cn(CC(=O)N2C[C@H](F)C[C@H]2C(=O)Nc2cccc(-c3ccc4[nH]cnc4c3Cl)c2F)c2ccccc12 [Compound 460, (2S,4R)-1-(2-(3-acetyl-1H-indol-1-yl)acetyl)-N-(3-(4-chloro-1H-benzo[d]imidazol-5-yl)-2-fluorophenyl)-4-fluoropyrrolidin-2-carboxamide]
< 1000 nM	CC(=O)c1nn(CC(=O)N2C[C@H](F)C[C@H]2C(=O)Nc2cccc(-c3ccc4[nH]cnc4c3Cl)c2F)c2ccccc12 [Compound 461, (2S,4R)-1-(2-(3-acetyl-1H-indazol-1-yl)acetyl)-N-(3-(4-chloro-1H-benzo[d]imidazol-5-yl)-2-fluorophenyl)-4-fluoropyrrolidin-2-carboxamide]
< 1000 nM	CC(=O)c1nn(CC(=O)N2[C@@H]3C[C@@H]3C[C@H]2C(=O)Nc2cccc(-c3ccc4[nH]cnc4c3Cl)c2F)c2ccccc12 [Compound 463, (1R,3S,5R)-2-(2-(3-acetyl-1H-indazol-1-yl)acetyl)-N-(3-(4-chloro-1H-benzo[d]imidazol-5-yl)-2-fluorophenyl)-2-azabicyclo[3.1.0] hexane-3-carboxamide]
